Laboratory results reported in patent US20030149021A1, “Piperazine mono(dithio)carbamate ester compounds and analogs thereof: preparation method and uses thereof” (Medinox, Inc., priority 2001, published 2003).

Key:
[1] = Preliminary acute toxicity in mice; type: in vivo
[2] = tested on: Mouse sarcoma 180 (S180); test: Anticancer activity against implanted mouse sarcoma 180 (S180), tumor weight; type: in vivo, mice; conditions: for Inhibition (%) (% reduction in tumor mass): S180 in mice, tumor harvested at day 12
Protocol: Animals: Kuiming mice 18-22 g were provided by the animal department of Bejing Medical University. ICR mice were provided by Beijing Weitonglihua Experiemental Animal Technology, Inc. Each experiment used the same number of male mice and female mice.
Tumor cell line: Mouse sarcoma 180 (S180) was provided by the pharmaceutical group of National Key Laboratory of Natural and Mimic Medicine.
Compound 42 was prepared by the School of Pharmaceutical Sciences of Peking University. Cyclophosphoramide was purchased from Shanghai Hualian Pharmaceutical, Inc.
Tumor was removed from the mouse abdominal cavity. The tumor was diluted to 5×10^6/ml and implanted to the left axilla subcutaneously (0.2 ml per mouse) under sterile conditions. Twenty four (24) hours after implantation, animals were divided into two groups (10 mice per group), either 42 or cyclophosphoramide was given orally to animals once a day for 10 days.
At day 12, the tumor was harvested and the average tumor weight of each group was calculated.

SMILES	toxicity (in words) [1]	No of Death ([1]; mice, dose 10 G/kg, 20 animals at start)	inhibition against S180 (in words) [2]	Inhibition (%) (% reduction in tumor mass) ([2]; 100 mg/kg orally once a day for 10 days)	Inhibition (%) (% reduction in tumor mass) ([2]; 500 mg/kg orally once a day for 10 days)	Inhibition (%) (% reduction in tumor mass) ([2]; 30 mg/kg orally once a day for 10 days)
CN1CCN(C(=S)SCCC(C#N)(c2ccccc2)c2ccccc2)CC1.Cl [Compound 42, 4-Methyl-piperazine-1-carbodithioc acid 3-cyano-3,3-diphenyl-propyl ester hydrochloride]	low toxicity	0	significant inhibition	74	80	–
O=P1(N(CCCl)CCCl)NCCCO1 (stereo not drawn) [Cyclophosphoramide, reference compound]	–	–	–	–	–	73
